This note sets out measurements from ChEMBL document CHEMBL1130614, “Design and synthesis of a pyridone-based phosphotyrosine mimetic” (Bioorg Med Chem Lett, 1998).

Assay [1] is described as follows: Inhibition of CD19 phosphopeptide binding to p85 N-terminal SH2 domain at 50 uM.
Assay [2] is described as follows: Inhibition of CD19 phosphopeptide binding to p85 N-terminal SH2 domain at 20 uM.
Assay [3] has as its target Platelet-derived growth factor receptor (Homo sapiens, UniProt P09619+P16234). The assay is described as follows: Inhibition of PDGF-beta receptor binding to p85 SH2-domain. The format is protein-complex assay.

Molecules are shown by their SMILES.

On to `CCCCN(CCCC)C(=O)[C@H](C)NC(=O)[C@@H](NC(=O)[C@H](Cc1ccn(CP(=O)(O)O)c(=O)c1)NC(C)=O)C(C)C`, for which the inhibition in assay [1] is 50%. Turning to `CCCCN(CCCC)C(=O)[C@H](C)NC(=O)[C@@H](NC(=O)[C@H](Cc1ccc(OP(=O)(O)O)cc1)NC(C)=O)C(C)C`, the inhibition in assay [2] came out at 98%. Also, the IC50 in assay [3] is 77 nM.

By inhibition is commonly meant the change of the read-out against control, counted positive when it falls. By IC50 is commonly meant the concentration that gives 50% inhibition. Read a low IC50 as higher potency.
